Experimental data as given in US12156893B2, “Oral composition comprising lactic acid bacteria for regulating immune responses and methods related thereto” (The Regents of the University of California, priority 2016, dated 2024).

Test system: NK cells
Test: Production of cytokines, growth factors and chemokines by NK cells treated with bacterial strains (Bio-Plex 27-plex)
Assay type: cell-based, human
Set-up: unit not given here
Description: Different strains of probiotic bacteria were tested for their ability to induce IFN-g as well as a number of important cytokines, chemokines and growth factors (Table 1). To assess the levels of each strain used in the combination we used an activation index established in the lab for the NK cells which consisted of the use of a specific ratio of several important cytokines and chemokines that prevented auto-immunity while enhancing significant activation of NK cells under pathologic conditions. Therefore, the strains were selected to: 1) provide regulated activation of NK cells when no activation of NK cells is desired; 2) when activated by cytokines and/or cross-linking of the important receptors which occurs during functional activation of NK cells in cancer is to induce maximal activation of NK cells; and 3) provide diversity for gut microflora. These criteria allow us to use bacteria to regulate the gut mucosal immunity in such a way that we will only increase NK activation when needed during infections or malignancies. In other words when there is no need for function of NK cells bacteria will regulate NK function to not induce inflammation; however, during need which occurs under the pathological conditions NK cells are triggered to function at the maximal levels. Such coordinated regulation of NK cell function should be effective in halting unwanted inflammation while providing effective and maximal immunity during disease.
Written informed consents, approved by UCLA Institutional Review Board (IRB), were obtained from healthy blood donors, and all procedures were approved by the UCLA-IRB. Peripheral blood was separated using Ficoll-Hypaque centrifugation, after which the white, cloudy layer, containing peripheral blood mononuclear cells (PBMC), was harvested, washed and re-suspended in RPMI 1640 (Invitrogen by Life Technologies, CA) supplemented with 10% FBS and plated on plastic tissue culture dishes. After 1-2 hours of incubation, non-adherent, human peripheral blood lymphocytes (PBL) were collected. NK cells were negatively selected and isolated from PBLs using the EasySep® Human NK cell enrichment kit purchased from Stem Cell Technologies (Vancouver, BC, Canada). Isolated NK cells were stained with anti-CD16 antibody, to measure NK cell purity using flow cytometric analysis. The isolated NK cell population was greater than 90% purity. Purified NK cells were cultured in RPMI Medium 1640 supplemented with 10% FBS (Gemini Bio-Products, CA), 1% antibiotic antimycotic, 1% sodium pyruvate, and 1% MEM non-essential amino acids (Invitrogen, Life Technologies, CA).
Purified NK cells from healthy donors were left untreated or treated with IL-2 (1000 units/ml) or the combination of anti-CD16 mAb (3 μg/ml) and IL-2 (1000 units/ml) in the presence or absence of bacterial strains at 1:5 ratio (NK cell: bacteria) for 12-18 hours. Afterwards, the levels of cytokines, growth factors and chemokines were determined using Bio-Plex Pro Human Cytokine 27-plex Assay Kit.

[1] = Treatment NK (no activation), bacteria 1:5 NK cell:bacteria, 12-18 hours
[2] = Treatment NK + IL-2 (1000 units/ml), bacteria 1:5, 12-18 hours
[3] = Treatment NK + IL-2 + anti-CD16 mAb (3 μg/ml), bacteria 1:5, 12-18 hours

Lactobacillus paracasei [L. paracasei]
Eotaxin [1]: 4 | G-CSF [1]: 106 | GM-CSF [1]: 99 | IFN-γ [1]: 186 | IL-1B [1]: 320 | IL-1ra [1]: 129 | IL-6 [1]: 3029 | IL-8 [1]: 3716 | IL-10 [1]: 70 | IL-12p70 [1]: 70 | IL-13 [1]: 8 | IL-17 [1]: 40 | IP-10 [1]: 53 | MCP-1 [1]: 506 | RANTES [1]: 1069 | TNF-α [1]: 3809 | Eotaxin [2]: 27 | G-CSF [2]: 138 | GM-CSF [2]: 157 | IFN-γ [2]: 2112 | IL-1B [2]: 523 | IL-1ra [2]: 551 | IL-6 [2]: 7285 | IL-8 [2]: 3983 | IL-10 [2]: 47 | IL-12p70 [2]: 125 | IL-13 [2]: 15 | IL-17 [2]: 63 | IP-10 [2]: 90 | MCP-1 [2]: 337 | RANTES [2]: 6468 | TNF-α [2]: 6776 | Eotaxin [3]: 40 | G-CSF [3]: 153 | GM-CSF [3]: 215 | IFN-γ [3]: 2145 | IL-1B [3]: 721 | IL-1ra [3]: 573 | IL-6 [3]: 6867 | IL-8 [3]: 6385 | IL-10 [3]: 43 | IL-12p70 [3]: 123 | IL-13 [3]: 27 | IL-17 [3]: 90 | IP-10 [3]: 92 | MCP-1 [3]: 427 | RANTES [3]: >22609 | TNF-α [3]: 10128

Lactobacillus bulgaricus [L. bulgaricus]
Eotaxin [1]: 7 | G-CSF [1]: 77 | GM-CSF [1]: 121 | IFN-γ [1]: 144 | IL-1B [1]: 293 | IL-1ra [1]: 112 | IL-6 [1]: 2518 | IL-8 [1]: 4501 | IL-10 [1]: 22 | IL-12p70 [1]: 25 | IL-13 [1]: 9 | IL-17 [1]: 49 | IP-10 [1]: 88 | MCP-1 [1]: 609 | RANTES [1]: 3804 | TNF-α [1]: 868 | Eotaxin [2]: 15 | G-CSF [2]: 69 | GM-CSF [2]: 120 | IFN-γ [2]: 381 | IL-1B [2]: 123 | IL-1ra [2]: 449 | IL-6 [2]: 837 | IL-8 [2]: 1997 | IL-10 [2]: 12 | IL-12p70 [2]: 21 | IL-13 [2]: 10 | IL-17 [2]: 55 | IP-10 [2]: 78 | MCP-1 [2]: 313 | RANTES [2]: 4737 | TNF-α [2]: 439 | Eotaxin [3]: 6 | G-CSF [3]: 59 | GM-CSF [3]: 136 | IFN-γ [3]: 306 | IL-1B [3]: 141 | IL-1ra [3]: 383 | IL-6 [3]: 685 | IL-8 [3]: 1819 | IL-10 [3]: 9 | IL-12p70 [3]: 5 | IL-13 [3]: 8 | IL-17 [3]: 50 | IP-10 [3]: 72 | MCP-1 [3]: 305 | RANTES [3]: 4062 | TNF-α [3]: 1064

Streptococcus thermophilus [S. thermophilus]
Eotaxin [1]: 40 | G-CSF [1]: 149 | GM-CSF [1]: 131 | IFN-γ [1]: 785 | IL-1B [1]: 1381 | IL-1ra [1]: 229 | IL-6 [1]: 10222 | IL-8 [1]: 3326 | IL-10 [1]: 63 | IL-12p70 [1]: 515 | IL-13 [1]: 9 | IL-17 [1]: 74 | IP-10 [1]: 64 | MCP-1 [1]: 502 | RANTES [1]: 2580 | TNF-α [1]: 18892 | Eotaxin [2]: 21 | G-CSF [2]: 87 | GM-CSF [2]: 124 | IFN-γ [2]: 1188 | IL-1B [2]: 390 | IL-1ra [2]: 465 | IL-6 [2]: 1773 | IL-8 [2]: 1341 | IL-10 [2]: 17 | IL-12p70 [2]: 132 | IL-13 [2]: 9 | IL-17 [2]: 65 | IP-10 [2]: 45 | MCP-1 [2]: 169 | RANTES [2]: 2197 | TNF-α [2]: 2413 | Eotaxin [3]: 29 | G-CSF [3]: 101 | GM-CSF [3]: 177 | IFN-γ [3]: 2594 | IL-1B [3]: 642 | IL-1ra [3]: 434 | IL-6 [3]: 2475 | IL-8 [3]: 1841 | IL-10 [3]: 23 | IL-12p70 [3]: 163 | IL-13 [3]: 15 | IL-17 [3]: 57 | IP-10 [3]: 58 | MCP-1 [3]: 332 | RANTES [3]: 2097 | TNF-α [3]: 4917
